Consider eleven compounds from PubChem BioAssay AID330 (DTP/NCI, 2004).

The experiment relates to P388 leukemia ip, CD2F1 mice, survival T/C. Description: NCI In Vivo Anticancer Drug Screen. Data for tumor model P388 Leukemia (intraperitoneal) in CD2F1 (CDF1) mice. The note with it: endpoint: median survival time, higher = longer survival. The procedure, abridged: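 Mice carrying the transplanted tumor received test compound or vehicle. Survival was recorded in each group, and the value is the treated-group measurement divided by that of the vehicle-treated control group.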

Setting [1] is: dose: 60.0 mg/kg/injection, schedule: Q01DX005 (ip), vehicle: saline with Tween-80.
Setting [2] is: dose: 120.0 mg/kg/injection, schedule: Q01DX005 (ip), vehicle: saline with Tween-80.
Where [3] appears, read: dose: 240.0 mg/kg/injection, schedule: Q01DX005 (ip), vehicle: saline with Tween-80.

Several values for one entry are separate records, joined by “and”; a condition that tells them apart may be missing. Equal values may be shown once. Inconclusive results and toxic doses are left out.

For `N#CCc1c(Cl)n(-c2ccccc2)c2ccccc12`, the T/C is 101 % of control (dose: 100.0 mg/kg/injection, schedule: Q01DX001 (ip), vehicle: Klucel (hydroxypropylcellulose) (HPC)); 93 % of control (dose: 200.0 mg/kg/injection, schedule: Q01DX001 (ip), vehicle: Klucel (hydroxypropylcellulose) (HPC)); 88 % of control (dose: 400.0 mg/kg/injection, schedule: Q01DX001 (ip), vehicle: Klucel (hydroxypropylcellulose) (HPC)).
Turning to `O=C1CSC(c2ccc(F)cc2)N1c1nncs1` (stereo not given), the T/C is 99 % of control under setting [1], 97 % of control under setting [2] and 101 % of control under setting [3].
Regarding `NCC(=O)O.[Cl-].[Cl-].[Cl-].[Cl-].[Pt+2]`, the T/C was 124 % of control (dose: 12.5 mg/kg/injection, schedule: Q01DX009 (ip), vehicle: saline); 108 % of control (dose: 14.7 mg/kg/injection, schedule: Q01DX009 (ip), vehicle: saline); 108 % of control (dose: 22.0 mg/kg/injection, schedule: Q01DX009 (ip), vehicle: saline).
Take `C=CC(/C=C\c1ccc(OC2OC(CO)C(O)C(O)C2O)cc1)c1ccc(OC2OC(CO)C(O)C(O)C2O)cc1` (stereo not given): the T/C runs as follows: (dose: 60.0 mg/kg/injection, schedule: Q01DX005 (ip), vehicle: saline) 97 % of control; (dose: 120.0 mg/kg/injection, schedule: Q01DX005 (ip), vehicle: saline) 103 % of control; (dose: 240.0 mg/kg/injection, schedule: Q01DX005 (ip), vehicle: saline) 92 % of control.
Take `COc1ccc2cc3[n+](cc2c1O)CCc1cc2c(cc1-3)OCO2`: the T/C (dose: 6.25 mg/kg/injection, schedule: Q01DX005 (ip), vehicle: Klucel (hydroxypropylcellulose) (HPC)) is 99 % of control and 106 % of control; the T/C (dose: 12.5 mg/kg/injection, schedule: Q01DX005 (ip), vehicle: Klucel (hydroxypropylcellulose) (HPC)) is 107 % of control and 96 % of control; the T/C (dose: 25.0 mg/kg/injection, schedule: Q01DX005 (ip), vehicle: Klucel (hydroxypropylcellulose) (HPC)) was 101 % of control and 117 % of control; the T/C (dose: 50.0 mg/kg/injection, schedule: Q01DX005 (ip), vehicle: Klucel (hydroxypropylcellulose) (HPC)) is 111 % of control; the T/C (dose: 200.0 mg/kg/injection, schedule: Q01DX005 (ip), vehicle: Klucel (hydroxypropylcellulose) (HPC)) is 179 % of control.
As for `O=c1[nH]c2cc(Cl)ccc2nc1C1=C(O)c2ccccc2C1`, the T/C runs as follows: under setting [1], 89 % of control; under setting [2], 89 % of control; under setting [3], 110 % of control.
Consider `CC(=O)O.[Bi]`, for which the T/C was 97 % of control (dose: 60.0 mg/kg/injection, schedule: Q01DX005 (ip), vehicle: Klucel (hydroxypropylcellulose) (HPC)); 96 % of control (dose: 120.0 mg/kg/injection, schedule: Q01DX005 (ip), vehicle: Klucel (hydroxypropylcellulose) (HPC)); 99 % of control (dose: 240.0 mg/kg/injection, schedule: Q01DX005 (ip), vehicle: Klucel (hydroxypropylcellulose) (HPC)).
Turning to `CN(C)c1nc(-c2ccccc2)c(Cc2ccccc2)c(=O)o1`, the T/C under setting [1] was 99 % of control, the T/C under setting [2] is 92 % of control and the T/C under setting [3] is 89 % of control.
`O=C1C=CC(=O)C2(CO)OC12` (stereo not given): the T/C was 95 % of control (dose: 1.88 mg/kg/injection, schedule: Q04DX002 (ip), vehicle: saline with Tween-80) and 102 % of control (dose: 3.75 mg/kg/injection, schedule: Q04DX002 (ip), vehicle: saline with Tween-80).
Regarding `NC(=S)n1nc(-c2ccccc2)c(N=Nc2ccc([N+](=O)[O-])cc2)c1-c1ccccc1`, the T/C is 100 % of control (dose: 25.0 mg/kg/injection, schedule: Q04DX002 (ip), vehicle: saline with Tween-80); 97 % of control (dose: 50.0 mg/kg/injection, schedule: Q04DX002 (ip), vehicle: saline with Tween-80); 87 % of control and 88 % of control (dose: 100.0 mg/kg/injection, schedule: Q04DX002 (ip), vehicle: saline with Tween-80); 92 % of control (dose: 400.0 mg/kg/injection, schedule: Q04DX002 (ip), vehicle: saline with Tween-80).
With `O=C(O)c1cc(Cc2ccc(O)c(C(=O)O)c2)ccc1O` (tested in a mixture with another compound), the T/C is 112 % of control (dose: 25.0 mg/kg/injection, schedule: Q01DX009 (ip), vehicle: Klucel (hydroxypropylcellulose) (HPC)); 107 % of control and 115 % of control (dose: 50.0 mg/kg/injection, schedule: Q01DX009 (ip), vehicle: Klucel (hydroxypropylcellulose) (HPC)); 121 % of control (dose: 100.0 mg/kg/injection, schedule: Q01DX009 (ip), vehicle: Klucel (hydroxypropylcellulose) (HPC)).
